From US9018224B2, “Substituted cyclopropyl compounds useful as GPR119 agonists” (Merck Sharp & Dohme Corp., priority 2011, dated 2015)

The compounds below were run against T1, human GPR119 (Homo sapiens, UniProt Q8TDV5) (assay: Measurement of GPR119 signaling by cAMP (LANCE cAMP kit or HTRF) in HEK293 cells transfected with human GPR119). Conditions: agonist cAMP response in HEK293 cells stably transfected with human GPR119; patent does not say which of the two cAMP formats (LANCE or HTRF).
T1 sequence (Q8TDV5 1-308 limits assumed): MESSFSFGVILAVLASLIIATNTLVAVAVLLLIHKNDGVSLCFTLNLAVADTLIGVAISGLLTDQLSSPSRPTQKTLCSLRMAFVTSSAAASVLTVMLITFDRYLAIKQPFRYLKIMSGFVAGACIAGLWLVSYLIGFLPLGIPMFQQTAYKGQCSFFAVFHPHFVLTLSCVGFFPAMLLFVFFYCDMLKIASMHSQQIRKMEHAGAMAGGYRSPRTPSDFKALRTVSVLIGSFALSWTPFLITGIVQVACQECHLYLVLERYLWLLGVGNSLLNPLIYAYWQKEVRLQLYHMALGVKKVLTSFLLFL
Type: cell-based
Procedure, shortened: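 LANCE TR-FRET cAMP readout; detection with Eu-SA/biotin-cAMP tracer for 3 h, signal converted to cAMP via standard curve, duplicates, 4-parameter fit vs DMSO basal and internal agonist maximum.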

Q: How did the EC50 turn out when `COCc1cnc(N2CCC([C@H]3C[C@H]3CCOc3ccc(CC(=O)N4CCc5nn[nH]c5C4)c(F)c3)CC2)nc1` [Example 57] was run?
A: The EC50 was 3 nM.

Q: How did the EC50 turn out when `CCOC(=O)CN(C)C(=O)Cc1ccc(OCC[C@@H]2C[C@@H]2C2CCN(c3ncc(Cl)cn3)CC2)cc1F` [Example 171] was run?
A: The EC50 was 1.7 nM.

Q: Which EC50 does the source give for `O=C(Cc1ccc(OCC[C@@H]2C[C@@H]2C2CCN(c3ncc(Cl)cn3)CC2)cc1F)N1CCn2nc(C3CC3)nc2C1` [Example 148] here?
A: The EC50 was 1.2 nM.

Q: Which EC50 does the source give for `CN(Cc1n[nH]c(=O)[nH]1)C(=O)Cc1ccc(OCC[C@@H]2C[C@@H]2C2CCN(c3ncc(Cl)cn3)CC2)cc1F` [Example 158] here?
A: The EC50 was 6.6 nM.

Q: With `CCN(C(=O)Cc1ccc(OCC[C@@H]2C[C@@H]2C2CCN(c3ncc(Cl)cn3)CC2)cc1F)C(C)C` [Example 102] as the compound, how does the EC50 read?
A: The EC50 was 3 nM.

Q: `O=C(Cc1ccc(OCC[C@@H]2C[C@@H]2C2CCN(c3ncc(Cl)cn3)CC2)cc1)NC1CC1` [Example 2] was tested. Which EC50 did it give?
A: Its EC50 is 1.8 nM.

Q: For `COc1cnc(N2CCC([C@H]3C[C@H]3CCOc3ccc(CC(=O)N4CCOCC4)c(F)c3)CC2)nc1` [Example 38], which EC50 is on record?
A: The EC50 was 1.4 nM.

Q: `O=C(Cc1ccc(OCC[C@@H]2C[C@@H]2C2CCN(c3ncc(Cl)cn3)CC2)cc1F)NC1CCC1` [Example 63] was tested. Which EC50 did it give?
A: Its EC50 is 4.2 nM.

Q: With `CC1c2nc(C(F)(F)F)cn2CCN1C(=O)Cc1ccc(OCC[C@@H]2C[C@@H]2C2CCN(c3ncc(Cl)cn3)CC2)cc1F` (stereo partly drawn) [Example 188] as the compound, how does the EC50 read?
A: The EC50 was 0.55 nM.

Q: `O=C(Cc1ccc(OCC[C@@H]2C[C@@H]2C2CCN(c3ncc(Cl)cn3)CC2)cc1F)NC(C1CC1)C1CC1` [Example 110] was tested. Which EC50 did it give?
A: The EC50 was 5.8 nM.

Q: Which EC50 does the source give for `COCc1cnc(N2CCC([C@H]3C[C@H]3CCOc3cc(F)c(CC(=O)N4CC(F)C4)c(F)c3)CC2)nc1` [Example 220] here?
A: Its EC50 is 0.14 nM.

Q: `COCc1cnc(N2CCC([C@H]3C[C@H]3CCOc3ccc(CC(=O)N4CC(OC)C4)c(F)c3)CC2)nc1` [Example 45] was tested. Which EC50 did it give?
A: Its EC50 is 0.81 nM.

Q: Which EC50 does the source give for `O=C(Cc1ccc(OCC[C@@H]2C[C@@H]2C2CCN(c3ncc(Cl)cn3)CC2)cc1F)N1Cc2cn[nH]c2C1` [Example 120] here?
A: Its EC50 is 1 nM.

Q: `CCOc1cnc(N2CCC([C@H]3C[C@H]3CCOc3cc(F)c(CC(=O)N4CC(O)C4)c(F)c3)CC2)nc1` [Example 232] was tested. Which EC50 did it give?
A: Its EC50 is 0.55 nM.

Q: With `COCc1cnc(N2CCC([C@H]3C[C@H]3CCOc3ccc(CC(=O)N4CC(OC)C4)c(Cl)c3)CC2)nc1` [Example 30] as the compound, how does the EC50 read?
A: The EC50 was 0.86 nM.

Q: `CCC(C)NC(=O)Cc1ccc(OCC[C@@H]2C[C@@H]2C2CCN(c3ncc(Cl)cn3)CC2)cc1F` (stereo partly drawn) [Example 100] was tested. Which EC50 did it give?
A: The EC50 was 1.8 nM.

Q: `CN(C(=O)Cc1ccc(OCC[C@@H]2C[C@@H]2C2CCN(c3ncc(Cl)cn3)CC2)cc1F)C1CCS(=O)(=O)C1` (stereo partly drawn) [Example 162] was tested. Which EC50 did it give?
A: The EC50 was 1.3 nM.

Q: Which EC50 does the source give for `COc1cnc(N2CCC([C@H]3C[C@H]3CCOc3cc(F)c(CC(=O)N(C)C)c(F)c3)CC2)nc1` [Example 213] here?
A: The EC50 was 0.23 nM.

Q: `CCc1cnc(N2CCC([C@H]3C[C@H]3CCOc3ccc(CC(=O)N4CCC4)c(C)c3)CC2)nc1` [Example 16] was tested. Which EC50 did it give?
A: Its EC50 is 1.1 nM.

Q: For `O=C(Cc1ccc(OCC[C@@H]2C[C@@H]2C2CCN(c3ncc(Cl)cn3)CC2)cc1F)N1CC(n2ccnc2)C1` [Example 118], which EC50 is on record?
A: The EC50 was 1.1 nM.

Q: How did the EC50 turn out when `CCOCc1cnc(N2CCC([C@H]3C[C@H]3CCOc3ccc(CC(=O)N4CC(F)C4)c(F)c3)CC2)nc1` [Example 201] was run?
A: Its EC50 is 0.49 nM.

Q: For `O=C(Cc1ccc(OCC[C@@H]2C[C@@H]2C2CCN(c3ncc(Cl)cn3)CC2)cc1F)N1CCc2cn[nH]c2C1` [Example 182], which EC50 is on record?
A: Its EC50 is 2.4 nM.

Q: Which EC50 does the source give for `COCc1cnc(N2CCC([C@H]3C[C@H]3CCOc3ccc(Cc4nnco4)c(F)c3)CC2)nc1` [Example 246] here?
A: The EC50 was 7.7 nM.

Q: With `COc1cnc(N2CCC([C@H]3C[C@H]3CCOc3ccc(CC(=O)N4CC(F)C4)c(F)c3)CC2)nc1` [Example 39] as the compound, how does the EC50 read?
A: The EC50 was 0.48 nM.
